Measured values: patent US9932339B2, “Helquats with heteroaromatic substituents, preparation thereof, and use thereof as G-quadruplex stabilizers” (USTAV ORGANICKE CHEMIE A BIOCHEMIE AV CR, V.V.I., priority 2014, dated 2018)
Like-named read-outs stand apart in the source and are kept apart here.

How the values were obtained:
HUVEC = assay: XTT cytotoxicity/proliferation assay, HUVEC; assay type: cell-based, human; settings: Homo sapiens, HUVEC
Method in brief: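 HUVEC (passages 3–8, collagen I-coated dishes, E-STIM medium) plated at 3000 cells/well, dosed next day with compounds in water. After 72 h at 37 °C, XTT added for 2 h; absorbance at 492 nm (reference 690 nm) against untreated and medium-only controls.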

[1] = tested on: G-quadruplex oligonucleotide Fmyc27T (NHE III1 promoter region of c-myc oncogene); assay: FRET melting of G-quadruplex oligonucleotide Fmyc27T with ligands; assay type: binding; settings: for ΔTm (° C.) Fmyc27T/ds26 (° C.): helquat 1 μmol·l^−1, oligonucleotide 0.2 μmol·l^−1, 50-fold excess of double-stranded competitor ds26; for ΔTm (° C.) Fmyc27T: helquat 1 μmol·l^−1, oligonucleotide 0.2 μmol·l^−1, without competitor
Source text: To determine the degree of in vitro interactions of helquats with G-quadruplex(es), the oligonucleotides containing the guanine-rich sequences of human telomere (F21T) and NHE III1 promoter region of c-myc oncogene (Fmyc27T) were used. Both oligonucleotides capable of forming an intramolecular G-quadruplex were end-labeled with suitable fluorophores so as to form donor-acceptor FRET pair (5′-FAM and 3′-TAMRA). If the oligonucleotide is folded into the structure of the G-quadruplex, donor is in close proximity of acceptor and radiationless energy transfer to the acceptor occurs. With increasing temperature of the reaction mixture G-quadruplex structure gradually denatures and thus the donor and acceptor (FAM-TAMRA) drift apart. This leads to an increase in fluorescence of donor (FAM) and a decrease in fluorescence of acceptor (TAMRA).
The result of measurement is the curve of dependence of the intensity of fluorescence of the donor on the temperature. If the G-quadruplex is stabilized by ligand, melting temperature will increase. Melting temperature of G-quadruplex corresponds to the temperature when 50% of the original amount of the folded G-quadruplex is denatured. The measurement outcome is the difference in the melting temperatures (ΔTm) of the G-quadruplex alone and the G-quadruplex stabilized by ligand. In case of Fmyc27T experiments were performed in cacodylate buffer (10 mmol·l^−1, pH=7.2) with KCl (5 mmol·l^−1) and LiCl (95 mmol·l^−1) oligonucleotide and in case of F21T oligonucleotide in cacodylate buffer (10 mmol·l^−1, pH=7.2) with KCl (25 mmol·l^−1) and LiCl (75 mmol·l^−1).
Both oligonucleotides were denatured for 5 minutes at 95° C. and subsequently allowed to cool to room temperature (3 hours) in the switched-off thermoblock. The final oligonucleotide concentration in the reaction mixture was 0.2 μmol·l^−1. Test helquats were present at concentrations of 1 μmol·l^−1. The total reaction volume was 30 μl. The melting temperature of the oligonucleotides alone (without the presence of helquats) under these conditions was 58.1±0.2° C. for F21T and 64.7±0.4° C. for Fmyc27T. For determining the selectivity of binding of helquats to G-quadruplex in comparison with the double-stranded DNA, 50-fold excess of double-stranded DNA ([…] unlabeled competitor ds26 forming a hairpin) is added to the reaction mixture. After the addition to the reaction mixture ds26 competes with labeled oligonucleotide (Fmyc27T or F21T) for ligand binding. […] Melting temperature of oligonucleotides alone in the presence of the competitor is 59.4±0.5° C. for F21T and 66.3° C.±0.6° C. for Fmyc27T.
Fluorescence of FAM donor was measured using real-time PCR apparatus Opticon 2 (excitation 470-505 nm and emission 523-543 nm) in temperature increments of 0.5° C. in the range 25 to 95° C. Evaluation of the sigmoid curves of fluorescence intensity dependent on the temperature were performed in GraphPad Prism 5 (GraphPad Software, Inc., USA). Using nonlinear five parametric regression the inflection point on the curve was calculated that corresponds to the melting temperature (Tm) of the G-quadruplex under the given conditions. The values were obtained from at least three independent measurements.

[2] = 72 hours of treatment, values above 100 μmol·l^−1 obtained by extrapolation, read-out: IC50 HUVEC
[3] = 72 hours, summary of table 9, read-out: concentrations non-toxic towards HUVEC cells

SMILES | IC50 (HUVEC; [2]) [µM] | IC50 (HUVEC; [3]) [µM] | ΔTm (° C.) Fmyc27T/ds26 (° C.) [1] [°C] | ΔTm (° C.) Fmyc27T [1] [°C]
O=[N+]([O-])c1cccc2[nH]cc(/C=C/c3cc[n+]4c(c3)-c3c(ccc5c3-c3cccc[n+]3CC5)CC4)c12 (racemic) [LSA-C9-32, (rac)-(E)-2-(2-(4-nitro-1H-indol-3-yl)vinyl)-6,7,10,11-tetrahydrodipyrido[2,1-a:1′,2′-k][2,9]phenanthroline-5,12-diium trifluoromethanesulfonate] | ≥ 100 | > 100 | 8.1 | 10.4
Cc1c(C)c2c(c3c1CC[n+]1ccc(/C=C/c4cccc5c4oc4ccccc45)cc1-3)-c1c3ccccc3cc[n+]1CC2 (racemic) [MJA-C13-8, (rac)-(E)-13-(2-(dibenzo[b,d]furan-4-yl)vinyl)-6,7-dimethyl-4,5,8,9-tetrahydroisoquinolino[1,2-a]pyrido[1,2-k][2,9]phenanthroline-3,10-diium trifluoromethanesulfonate] | ≥ 100 |  | 4.9 | 11.0
C(=C\c1cccc2c1oc1ccccc12)/c1cc[n+]2c(c1)-c1c(ccc3c1-c1c4ccccc4cc[n+]1CC3)CC2.O=S(=O)([O-])C(F)(F)F.O=S(=O)([O-])C(F)(F)F [MSB-C13-8, (E)-13-(2-(dibenzo[b,d]furan-4-yl)vinyl)-4,5,8,9-tetrahydroisoquinolino[1,2-a]pyrido[1,2-k][2,9]phenanthroline-3,10-diium trifluoromethanesulfonate] | ≥ 100 |  | 7.7 | 12.6
Brc1ccc2[nH]cc(/C=C/c3cc4ccccc4[n+]4c3-c3c(ccc5c3-c3cccc[n+]3CCC5)CCC4)c2c1.O=S(=O)([O-])C(F)(F)F.O=S(=O)([O-])C(F)(F)F [MSC-C9-30, 19-((E)-2-(5-bromo-1H-indol-3-yl)vinyl)-6,7,8,11,12,13-hexahydropyrido[1′″,2′″:1″,2″]azepino[4″,3″:5′,6′]benzo[1′,2′:3,4]azepino[1,2-a]quinoline-5,14-diium trifluoromethanesulfonate] | ≥ 100 | > 100 |  | 
C(=C\c1c(-c2ccccc2)[nH]c2ccccc12)/c1cc2ccccc2[n+]2c1-c1c(ccc3c1-c1cccc[n+]1CCC3)CCC2.O=S(=O)([O-])C(F)(F)F.O=S(=O)([O-])C(F)(F)F [MSC-C15-8, 19-((E)-2-(2-phenyl-1H-indol-3-yl)vinyl)-6,7,8,11,12,13-hexahydropyrido[1′″,2′″:1″,2″]azepino[4″,3″:5′,6′]benzo[1′,2′:3,4]azepino[1,2-a]quinoline-5,14-diium trifluoromethanesulfonate] | ≥ 51 |  |  | 
